Laboratory results taken from the NIST ThermoML archive (doi:10.1016/j.jct.2008.01.007).
Numbers after ± are expanded uncertainties.

Details: 101 kPa, Liquid

mass density (293.15 K): 1076.58 ± 3.1 kg/m3 | viscosity (293.15 K): 26.58 ± 1.8 mPa·s | mass density (303.15 K): 1066.51 ± 3 kg/m3 | viscosity (303.15 K): 21.99 ± 1.5 mPa·s | mass density (313.15 K): 1059.19 ± 2.8 kg/m3 | viscosity (313.15 K): 17.32 ± 1.2 mPa·s | mass density (323.15 K): 1052.64 ± 2.7 kg/m3 | viscosity (323.15 K): 12.86 ± 0.92 mPa·s | mass density (333.15 K): 1046.43 ± 2.6 kg/m3 | viscosity (333.15 K): 8.284 ± 0.64 mPa·s
Compound: OCCN1CCOCC1 [4-morpholineethanol]
